From PubChem BioAssay (NCI)
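These data come from cells grown in 96-well plates and exposed to compound for 48 hours at five concentrations. TGI: concentration producing complete growth inhibition.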

Experiments:
Experiment in all cases: growth of human tumour cells (NCI), 48 h
M14 melanoma = test system: M14 melanoma
HCT-15 colon = test system: HCT-15 colon
LOX IMVI melanoma = test system: LOX IMVI melanoma
NCI-H460 lung = test system: NCI-H460 lung
MDA-MB-231 breast = test system: MDA-MB-231 breast
OVCAR-3 ovarian = test system: OVCAR-3 ovarian
SK-MEL-2 melanoma = test system: SK-MEL-2 melanoma
MDA-MB-435 = test system: MDA-MB-435
HL-60(TB) leukemia = test system: HL-60(TB) leukemia
786-0 renal = test system: 786-0 renal
SW-620 colon = test system: SW-620 colon
MALME-3M melanoma = test system: MALME-3M melanoma
MCF7 breast = test system: MCF7 breast
OVCAR-5 ovarian = test system: OVCAR-5 ovarian
SNB-75 CNS = test system: SNB-75 CNS
SK-MEL-5 melanoma = test system: SK-MEL-5 melanoma
UO-31 renal = test system: UO-31 renal
HCT-116 colon = test system: HCT-116 colon
HT29 colon = test system: HT29 colon
U251 CNS = test system: U251 CNS
SF-539 CNS = test system: SF-539 CNS
K-562 leukemia = test system: K-562 leukemia
DU-145 prostate = test system: DU-145 prostate
SNB-19 CNS = test system: SNB-19 CNS
NCI-H522 lung = test system: NCI-H522 lung
BT-549 breast = test system: BT-549 breast
OVCAR-8 ovarian = test system: OVCAR-8 ovarian
MDA-N = test system: MDA-N
A549 NSCLC = test system: A549 NSCLC
SK-OV-3 ovarian = test system: SK-OV-3 ovarian
SF-268 CNS = test system: SF-268 CNS
PC-3 prostate = test system: PC-3 prostate
A498 renal = test system: A498 renal
TK-10 renal = test system: TK-10 renal
SR leukemia = test system: SR leukemia
EKVX NSCLC = test system: EKVX NSCLC
HOP-62 NSCLC = test system: HOP-62 NSCLC
IGROV1 ovarian = test system: IGROV1 ovarian
SN12C renal = test system: SN12C renal
HS 578T breast = test system: HS 578T breast
NCI-H23 lung = test system: NCI-H23 lung
T-47D breast = test system: T-47D breast
KM12 colon = test system: KM12 colon
COLO 205 colon = test system: COLO 205 colon
UACC-62 melanoma = test system: UACC-62 melanoma
SK-MEL-28 melanoma = test system: SK-MEL-28 melanoma
HOP-92 NSCLC = test system: HOP-92 NSCLC
UACC-257 melanoma = test system: UACC-257 melanoma
ACHN renal = test system: ACHN renal
OVCAR-4 ovarian = test system: OVCAR-4 ovarian
MOLT-4 leukemia = test system: MOLT-4 leukemia
HCC-2998 colon = test system: HCC-2998 colon
NCI/ADR-RES ovarian = test system: NCI/ADR-RES ovarian
NCI-H226 lung = test system: NCI-H226 lung
CAKI-1 renal = test system: CAKI-1 renal
CCRF-CEM leukemia = test system: CCRF-CEM leukemia
SF-295 CNS = test system: SF-295 CNS
RPMI-8226 leukemia = test system: RPMI-8226 leukemia

N#CC(C#N)N=Nc1ccc(-c2nc3ccccc3o2)cc1
TGI (M14 melanoma): 31.2 µM
TGI (HCT-15 colon): 38.5 µM
TGI (LOX IMVI melanoma): 29 µM
TGI (NCI-H460 lung): 30.4 µM
TGI (MDA-MB-231 breast): 61.7 µM
TGI (OVCAR-3 ovarian): 9.77 µM
TGI (SK-MEL-2 melanoma): 31.4 µM
TGI (MDA-MB-435): 52.9 µM
TGI (HL-60(TB) leukemia): 40.2 µM
TGI (786-0 renal): 30.8 µM
TGI (SW-620 colon): 28.1 µM
TGI (MALME-3M melanoma): > 100 µM
TGI (MCF7 breast): 36.2 µM
TGI (OVCAR-5 ovarian): 36.1 µM
TGI (SNB-75 CNS): 66.5 µM
TGI (SK-MEL-5 melanoma): 5.56 µM
TGI (UO-31 renal): 26 µM
TGI (HCT-116 colon): 19.5 µM
TGI (HT29 colon): 27.8 µM
TGI (U251 CNS): 29.7 µM
TGI (SF-539 CNS): 26.1 µM
TGI (K-562 leukemia): 54.7 µM
TGI (DU-145 prostate): 31.5 µM
TGI (SNB-19 CNS): 60 µM
TGI (NCI-H522 lung): 73.7 µM
TGI (BT-549 breast): 31.8 µM
TGI (OVCAR-8 ovarian): > 100 µM
TGI (MDA-N): 45.2 µM
TGI (A549 NSCLC): 47.6 µM
TGI (SK-OV-3 ovarian): 43.7 µM
TGI (SF-268 CNS): > 100 µM
TGI (PC-3 prostate): 29.2 µM
TGI (A498 renal): 31.2 µM
TGI (TK-10 renal): 38.2 µM
TGI (SR leukemia): 42.6 µM
TGI (EKVX NSCLC): 29.9 µM
TGI (HOP-62 NSCLC): 38.5 µM
TGI (IGROV1 ovarian): 93.2 µM
TGI (SN12C renal): 30.5 µM
TGI (HS 578T breast): > 100 µM
TGI (NCI-H23 lung): 29.9 µM
TGI (T-47D breast): 25.2 µM
TGI (KM12 colon): 50.5 µM
TGI (COLO 205 colon): 23.9 µM
TGI (UACC-62 melanoma): 26.1 µM
TGI (SK-MEL-28 melanoma): 32.3 µM
TGI (HOP-92 NSCLC): > 100 µM
TGI (UACC-257 melanoma): 17.8 µM
TGI (ACHN renal): 41.6 µM
TGI (OVCAR-4 ovarian): > 100 µM
TGI (MOLT-4 leukemia): 37 µM
TGI (HCC-2998 colon): 14.7 µM
TGI (NCI/ADR-RES ovarian): 62.9 µM

O=C(NNC(=S)NCc1ccccc1)c1csc(NC(=S)NC2CCCCC2)n1
TGI (M14 melanoma): > 100 µM
TGI (HCT-15 colon): > 100 µM
TGI (LOX IMVI melanoma): > 100 µM
TGI (MDA-MB-231 breast): 83.3 µM
TGI (OVCAR-3 ovarian): > 100 µM
TGI (SK-MEL-2 melanoma): 65.7 µM
TGI (MDA-MB-435): 82.9 µM
TGI (HL-60(TB) leukemia): > 100 µM
TGI (786-0 renal): > 100 µM
TGI (SW-620 colon): > 100 µM
TGI (NCI-H226 lung): 64.7 µM
TGI (MALME-3M melanoma): > 100 µM
TGI (MCF7 breast): > 100 µM
TGI (CAKI-1 renal): > 100 µM
TGI (OVCAR-5 ovarian): > 100 µM
TGI (SK-MEL-5 melanoma): 28.2 µM
TGI (UO-31 renal): 58.2 µM
TGI (HCT-116 colon): 72.3 µM
TGI (HT29 colon): 12.1 µM
TGI (U251 CNS): > 100 µM
TGI (SF-539 CNS): > 100 µM
TGI (DU-145 prostate): > 100 µM
TGI (SNB-19 CNS): > 100 µM
TGI (NCI-H522 lung): > 100 µM
TGI (BT-549 breast): > 100 µM
TGI (OVCAR-8 ovarian): > 100 µM
TGI (MDA-N): 73.2 µM
TGI (A549 NSCLC): > 100 µM
TGI (SK-OV-3 ovarian): > 100 µM
TGI (SF-268 CNS): > 100 µM
TGI (PC-3 prostate): > 100 µM
TGI (A498 renal): > 100 µM
TGI (TK-10 renal): > 100 µM
TGI (CCRF-CEM leukemia): > 100 µM
TGI (SF-295 CNS): > 100 µM
TGI (SR leukemia): > 100 µM
TGI (EKVX NSCLC): > 100 µM
TGI (HOP-62 NSCLC): > 100 µM
TGI (IGROV1 ovarian): > 100 µM
TGI (SN12C renal): 95.7 µM
TGI (NCI-H23 lung): > 100 µM
TGI (T-47D breast): 95.4 µM
TGI (RPMI-8226 leukemia): 58.2 µM
TGI (KM12 colon): > 100 µM
TGI (COLO 205 colon): 49.6 µM
TGI (UACC-62 melanoma): > 100 µM
TGI (UACC-257 melanoma): 43 µM
TGI (ACHN renal): > 100 µM
TGI (MOLT-4 leukemia): > 100 µM
TGI (HCC-2998 colon): > 100 µM
TGI (NCI/ADR-RES ovarian): 96.4 µM
